Source: PubChem BioAssay AID248 (DTP/NCI, 2004)
Values joined by “and” are separate entries in the source; they are usually repeats but may differ in a detail not shown here. Equal entries are not always repeated. Toxic doses and inconclusive results are not listed. Rule as the data show it: active = T/C of 150% or more; inactive = T/C below 125%.

Tested on: L1210 leukemia ip in BDF1 mice, survival T/C
Assay: NCI In Vivo Anticancer Drug Screen. Data for tumor model L1210 Leukemia (intraperitoneal) in B6D2F1 (BDF1) mice
Conditions: endpoint: mean survival time, higher = longer survival
How it was run: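 Transplantable tumor model; survival measured in treated vs vehicle control mice. Value = treated/control.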

[1] = dose: 100.0 mg/kg/injection, schedule: Q04DX003 (ip), vehicle: saline
[2] = dose: 200.0 mg/kg/injection, schedule: Q04DX003 (ip), vehicle: saline
[3] = dose: 400.0 mg/kg/injection, schedule: Q04DX003 (ip), vehicle: saline
[4] = dose: 100.0 mg/kg/injection, schedule: Q01DX009 (ip), vehicle: saline with Tween-80
[5] = dose: 200.0 mg/kg/injection, schedule: Q01DX009 (ip), vehicle: saline with Tween-80
[6] = dose: 100.0 mg/kg/injection, schedule: Q01DX001 (ip), vehicle: Klucel (hydroxypropylcellulose) (HPC)
[7] = dose: 200.0 mg/kg/injection, schedule: Q01DX001 (ip), vehicle: Klucel (hydroxypropylcellulose) (HPC)
[8] = dose: 100.0 mg/kg/injection, schedule: Q01DX001 (ip), vehicle: saline
[9] = dose: 200.0 mg/kg/injection, schedule: Q01DX001 (ip), vehicle: saline
[10] = dose: 400.0 mg/kg/injection, schedule: Q01DX001 (ip), vehicle: saline
[11] = dose: 100.0 mg/kg/injection, schedule: Q04DX003 (ip), vehicle: saline with Tween-80
[12] = dose: 200.0 mg/kg/injection, schedule: Q04DX003 (ip), vehicle: saline with Tween-80
[13] = dose: 400.0 mg/kg/injection, schedule: Q04DX003 (ip), vehicle: saline with Tween-80
[14] = dose: 100.0 mg/kg/injection, schedule: Q04DX002 (ip), vehicle: saline with Tween-80
[15] = dose: 200.0 mg/kg/injection, schedule: Q04DX002 (ip), vehicle: saline with Tween-80
[16] = dose: 400.0 mg/kg/injection, schedule: Q04DX002 (ip), vehicle: saline with Tween-80

Measured: T/C

CCCCCCCCCCCCCCCCn1cnc2ncnc(Cl)c21
inactive: dose: 12.5 mg/kg/injection, schedule: Q01DX005 (ip), vehicle: other 100 % of control | dose: 25.0 mg/kg/injection, schedule: Q01DX005 (ip), vehicle: other 102 % of control | dose: 50.0 mg/kg/injection, schedule: Q01DX005 (ip), vehicle: other 98 % of control | dose: 100.0 mg/kg/injection, schedule: Q01DX005 (ip), vehicle: other 105 % of control | dose: 200.0 mg/kg/injection, schedule: Q01DX005 (ip), vehicle: other 100 % of control

Oc1ccc2ccccc2c1C=Nc1ccccc1
inactive: dose: 100.0 mg/kg/injection, schedule: Q01DX001 (ip), vehicle: other 91 % of control | dose: 200.0 mg/kg/injection, schedule: Q01DX001 (ip), vehicle: other 98 % of control | dose: 400.0 mg/kg/injection, schedule: Q01DX001 (ip), vehicle: other 96 % of control

NOCCCCCCON
inactive: [1] 95 % of control | [2] 97 % of control | [3] 95 % of control

CC[P+](C)(CC)c1ccccc1
inactive: dose: 15.0 mg/kg/injection, schedule: Q01DX001 (ip), vehicle: saline 98 % of control | dose: 30.0 mg/kg/injection, schedule: Q01DX001 (ip), vehicle: saline 101 % of control

c1c[nH]c(N=Nc2ccc(N=Nc3ncc[nH]3)cc2)n1
inactive: dose: 50.0 mg/kg/injection, schedule: Q01DX009 (ip), vehicle: saline with Tween-80 100 % of control | [4] 94 % of control | [5] 94 % of control

COc1ccccc1N=Nc1c(O)n(-c2ccccc2OC)c(=S)n(-c2ccccc2)c1=O
inactive: [6] 96 % of control | [7] 94 % of control

NCCC(=O)NO
inactive: [8] 98 % of control | [9] 88 % of control | [10] 106 % of control

CS(=O)CCNC(=O)NS(=O)(=O)c1ccc(Cl)cc1 (centres undefined)
inactive: [1] 97 % of control | [2] 98 % of control | [3] 108 % of control

O=C1S/C(=C/c2ccccc2)C(=O)N1c1ccccc1
inactive: [6] 98 % of control | [7] 90 % of control | dose: 400.0 mg/kg/injection, schedule: Q01DX001 (ip), vehicle: Klucel (hydroxypropylcellulose) (HPC) 94 % of control

Cc1ccc(S(=O)(=O)Nc2ccccc2O)cc1
inactive: [8] 102 % of control | [9] 98 % of control | [10] 98 % of control

CC1C(OC(=O)CCc2ccccc2)=CCC2C1(C)CCC1C2(C)CCC2(C)C3CC(C)(C)CCC3(C)CCC12C (centres undefined)
inactive: dose: 50.0 mg/kg/injection, schedule: Q01DX001 (ip), vehicle: saline 98 % of control | [8] 102 % of control | [9] 95 % of control

CCCCN=CC(C)(C)NCCCC
inactive: dose: 50.0 mg/kg/injection, schedule: Q01DX009 (ip), vehicle: saline 95 % of control | dose: 100.0 mg/kg/injection, schedule: Q01DX009 (ip), vehicle: saline 90 % of control | [1] 106 % of control | dose: 200.0 mg/kg/injection, schedule: Q01DX009 (ip), vehicle: saline 88 % of control | [2] 104 % of control

CC(C)=C(c1ccc(Cl)cc1)c1c(Cl)ncnc1Cl
inactive: [11] 101 % of control | [12] 102 % of control | [13] 104 % of control

COC(=O)[CH]([Hg][CH](C(=O)OC)C(=O)OC)C(=O)OC
inactive: dose: 3.12 mg/kg/injection, schedule: Q04DX002 (ip), vehicle: Klucel (hydroxypropylcellulose) (HPC) 88 % of control | dose: 6.25 mg/kg/injection, schedule: Q04DX002 (ip), vehicle: Klucel (hydroxypropylcellulose) (HPC) 98 % of control | dose: 12.5 mg/kg/injection, schedule: Q04DX002 (ip), vehicle: Klucel (hydroxypropylcellulose) (HPC) 91 % of control

O=C(NC/C=C/Br)C(F)(F)F
inactive: dose: 100.0 mg/kg/injection, schedule: Q01DX001 (ip), vehicle: saline with Tween-80 118 % of control | [11] 98 % of control | dose: 200.0 mg/kg/injection, schedule: Q01DX001 (ip), vehicle: saline with Tween-80 96 % of control | [12] 95 % of control | dose: 400.0 mg/kg/injection, schedule: Q01DX001 (ip), vehicle: saline with Tween-80 95 % of control | [13] 97 % of control

CS/C(N)=N\NC(N)=S
inactive: [6] 96 % of control | [7] 88 % of control

O=C(Nc1ccc(F)cc1)OCC1CCCO1 (centres undefined)
inactive: dose: 100.0 mg/kg/injection, schedule: Q01DX001 (ip), vehicle: carboxymethylcellulose (CMC) 100 % of control | dose: 100.0 mg/kg/injection, schedule: Q01DX009 (ip), vehicle: carboxymethylcellulose (CMC) 102 % of control and 103 % of control | dose: 100.0 mg/kg/injection, schedule: Q04DX002 (ip), vehicle: carboxymethylcellulose (CMC) 100 % of control and 102 % of control | dose: 200.0 mg/kg/injection, schedule: Q01DX001 (ip), vehicle: carboxymethylcellulose (CMC) 103 % of control | dose: 200.0 mg/kg/injection, schedule: Q01DX009 (ip), vehicle: carboxymethylcellulose (CMC) 92 % of control and 97 % of control | dose: 200.0 mg/kg/injection, schedule: Q04DX002 (ip), vehicle: carboxymethylcellulose (CMC) 95 % of control and 98 % of control | dose: 400.0 mg/kg/injection, schedule: Q01DX001 (ip), vehicle: carboxymethylcellulose (CMC) 92 % of control | dose: 400.0 mg/kg/injection, schedule: Q01DX009 (ip), vehicle: carboxymethylcellulose (CMC) 96 % of control and 102 % of control | dose: 400.0 mg/kg/injection, schedule: Q04DX002 (ip), vehicle: carboxymethylcellulose (CMC) 92 % of control and 96 % of control

COC(=O)C(C)O (centres undefined)
inactive: [1] 97 % of control | [2] 105 % of control | [3] 107 % of control

CC1=CC=CC(C)(C)CC1=O
inactive: dose: 100.0 mg/kg/injection, schedule: Q04DX003 (ip), vehicle: other 102 % of control | dose: 200.0 mg/kg/injection, schedule: Q04DX003 (ip), vehicle: other 91 % of control | dose: 400.0 mg/kg/injection, schedule: Q04DX003 (ip), vehicle: other 95 % of control

Cc1ccc(N=Cc2cc(Br)ccc2O)cc1Cl
inactive: [14] 107 % of control | [15] 107 % of control | [16] 96 % of control

CC(=O)Nc1c2ccccc2nc2ccccc12
inactive: [14] 90 % of control | [15] 97 % of control | [16] 90 % of control

c1ccc(Nc2n[n+](-c3ccccc3)no2)cc1
inactive: [4] 106 % of control | [11] 108 % of control | [5] 101 % of control | [12] 100 % of control | dose: 400.0 mg/kg/injection, schedule: Q01DX009 (ip), vehicle: saline with Tween-80 108 % of control | [13] 110 % of control
